# Source: PubChem BioAssay (NCI)
#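 Tested at 5 concentrations; 48 h exposure; 96-well plates; endpoints linearly interpolated, else capped at highest concentration. GI50 is the concentration that inhibits growth by half. At the TGI there is no net growth.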
# Key:
# Assay in all cases: inhibition of tumour cell growth, NCI panel, 48 h
# NCI-H460 lung = test system: NCI-H460 lung
# HS 578T breast = test system: HS 578T breast
# SN12C renal = test system: SN12C renal
# SK-MEL-2 melanoma = test system: SK-MEL-2 melanoma
# SK-MEL-28 melanoma = test system: SK-MEL-28 melanoma
# IGROV1 ovarian = test system: IGROV1 ovarian
# UO-31 renal = test system: UO-31 renal
# MDA-MB-435 = test system: MDA-MB-435
# TK-10 renal = test system: TK-10 renal
# NCI-H23 lung = test system: NCI-H23 lung
Compound,TGI (NCI-H460 lung),TGI (HS 578T breast),TGI (SN12C renal),TGI (SK-MEL-2 melanoma),TGI (SK-MEL-28 melanoma),TGI (IGROV1 ovarian),TGI (UO-31 renal),TGI (MDA-MB-435),TGI (TK-10 renal),TGI (NCI-H23 lung),GI50 (NCI-H460 lung),GI50 (SN12C renal),GI50 (SK-MEL-2 melanoma),GI50 (SK-MEL-28 melanoma),GI50 (IGROV1 ovarian),GI50 (UO-31 renal),GI50 (TK-10 renal),GI50 (NCI-H23 lung)
CC(=O)Oc1cccc2c(/C=N/NC(N)=S)ncc(C)c12,7.81 µM,> 73 µM,17.1 µM,25.3 µM,> 48.4 µM,20.9 µM,4.43 µM,> 45.9 µM,22 µM,13.4 µM,,,,,,,,
CC1CC=CC(O)C1 (centres undefined),> 100 µM,,> 100 µM,> 100 µM,> 100 µM,> 100 µM,> 100 µM,,,> 100 µM,,,,,,,,
O=C(OC(=O)n1ccc2ccccc21)n1ccc2ccccc21,> 100 µM,,> 100 µM,> 100 µM,> 100 µM,> 100 µM,> 100 µM,,,> 100 µM,,,,,,,,
CCCCCN=Cc1c(O)c(O)c(C(C)C)c2cc(C)c(-c3c(C)cc4c(C(C)C)c(O)c(O)c(C=NCCCCC)c4c3O)c(O)c12,> 100 µM,> 100 µM,> 100 µM,> 100 µM,26.5 µM,87.4 µM,41.1 µM,17.8 µM,> 100 µM,> 100 µM,,,,,,,,
COc1cc(C[S+]2CCCC2)c(SC)cc1C[S+]1CCCC1,> 100 µM,,> 100 µM,> 100 µM,> 100 µM,> 100 µM,> 100 µM,,> 100 µM,> 100 µM,,,,,,,,
Cc1cc(=O)[nH]c(NN2C(Cl)C(=O)C2c2cccc(O)c2)n1 (centres undefined),> 100 µM,,> 100 µM,> 100 µM,> 100 µM,> 100 µM,24.7 µM,,> 100 µM,> 100 µM,,,,,,,,
CCC[CH2][Ge]([CH2]CCC)([CH2]CCC)[O]C(=O)CC(=O)c1ccccc1,12.4 µM,,15 µM,17.9 µM,19.1 µM,13.9 µM,15.9 µM,,21 µM,14.8 µM,0.325 µM,0.538 µM,2.22 µM,4.48 µM,2.2 µM,1.66 µM,7.03 µM,0.28 µM
NC(CCCCP(=O)(O)O)C(=O)O (centres undefined),> 100 µM,> 100 µM,> 100 µM,> 100 µM,> 100 µM,> 100 µM,> 100 µM,> 100 µM,> 100 µM,> 100 µM,,,,,,,,
CCc1nc(N)nc(N)c1-c1ccc2nn(-c3ccccc3)[n+]([O-])c2c1,14.8 µM,52.3 µM,24.4 µM,28.7 µM,25.1 µM,23.2 µM,35.2 µM,19.5 µM,55.6 µM,18.2 µM,,,,,,,,
CC(=O)OC1CCC2(C)C3CCC4(C)C(c5ccc(=O)oc5)CC5OC54C3CCC2(O)C1 (centres undefined),1.75 µM,,34.2 µM,13 µM,21.7 µM,21 µM,9.38 µM,,,2.98 µM,,,,,,,,
Nc1nc(N)c2[nH]c(CNc3ccc(C(=O)O)cc3)nc2n1,> 100 µM,> 100 µM,> 100 µM,> 100 µM,> 100 µM,> 100 µM,> 100 µM,> 100 µM,> 100 µM,> 100 µM,,,,,,,,
O=[N+]([O-])c1ccc(C=C2C(Cl)=C(Cl)C(Cl)=C2Cl)cc1,> 100 µM,,> 100 µM,8.89 µM,74.4 µM,4.41 µM,3.16 µM,,7.58 µM,5.16 µM,3.62 µM,3.02 µM,2.77 µM,3.81 µM,2 µM,1.47 µM,2.41 µM,2.05 µM
